Measured values taken from publication PMC4291223, “Inhibitors of CLK Protein Kinases Suppress Cell Growth and Induce Apoptosis by Modulating Pre-mRNA Splicing” (PLoS ONE, 2015).

Legend:
[1] = tested on: mRNA isoforms harboring PTCs in MDA-MB-468 cells; experiment: Fluorescence pulse-chase RNA labeling assay; type: cell-based, human; settings: 50 μM Cpd-1 or 5 μM Cpd-2
Protocol: MDA-MB-468 cells (5 × 10^5) were seeded into 6-well plates and incubated overnight. The cells were treated with each compound for 6 h and incubated with culture medium containing 5-EU (Invitrogen) to label cellular RNA. After incubation for 1 h, the medium was replaced with EU-free fresh medium and the cells were cultured for a further 24 h to allow degradation of the labeled RNA (chase). Cells were harvested before and after the chase and EU-labeled RNA was isolated using a Click-iT Nascent RNA Capture Kit (Invitrogen) according to the manufacturer’s instructions. The isolated RNA was analyzed by quantitative RT-PCR to measure the amount of each mRNA splice isoform.

[2] = target: T1, SRPK3 (Homo sapiens, UniProt Q9UPE1); experiment: In vitro kinase assay (ADP-Glo), SRPK3; type: biochemical; settings: 5 µM ATP
T1 construct: purchased Millipore
Protocol: The ATP concentration for each assay was adjusted to the Km for each kinase. Kinase assays for SRPK1–3 and CLK1 were performed using the ADP-Glo™ assay (Promega, Madison, WI). The kinase buffer contained 25 mM HEPES (pH 7.5), 10 mM magnesium acetate, 1 mM DTT, 0.01% BSA, and 0.01% Tween-20. The reaction mixtures contained 50 ng/mL SRPK1, 100 ng/mL SRPK2 or SRPK3, or 300 ng/mL CLK1 and 3 μM substrate peptide [GRSRSRSRSRSRSRSR] (Thermo Scientific). After incubating the enzyme, peptide, and compounds for 10 min, kinase reactions were initiated by adding ATP to a final concentration of 5 µM, followed by incubation for 30 min (15 min for SRPK1). The kinase reactions were terminated by adding ADP-Glo™ reagent (Promega). ADP was detected using a kinase detection reagent (Promega). The kinase activity of CLK2 was measured using the LANCE® Ultra assay (Perkin-Elmer, Waltham, MA) with ADP-Glo assay buffer. […] The enzyme reactions were terminated by adding 30 mM EDTA, and phosphorylated ULight-MBP peptides were detected using a europium-labeled anti-phospho-MBP antibody diluted with detection buffer (Perkin-Elmer). The plates were read using an EnVision 2102 multilabel reader (Perkin-Elmer). We defined the absorbance of the reaction without enzyme as 100% inhibitory activity and that of the complete reaction mixture as 0% inhibitory activity. […]

[3] = target: PI3Kα (Homo sapiens, UniProt P42336); experiment: Kinase panel assay (Z'-LYTE, SelectScreen), PI3Kα; type: biochemical; settings: 1 μM compound, 100 μM ATP; among kinases inhibited by more than 50%
Protocol: Kinase panel assays were performed using the FRET-based Z’- LYTE enzymatic kinase assay system (Life Technologies, Carlsbad, CA), which was carried out using the SelectScreen Kinase Profiling Service (Life Technologies). The standard reaction contained 2 μM peptide substrate, 100 μM ATP, 50 mM HEPES (pH 7.5), 0.01% Brij-35, 10 mM MgCl2, 1 mM EGTA, and each kinase. Cpd-1, Cpd-2, and Cpd-3 at two point concentration (100 and 1000 nM) with duplicate data points (n = 2) were assayed following the detailed procedures outlined in the SelectScreen. The full assay protocol and conditions can be obtained at www.lifetechnologies.com. Percent inhibition represents a ratio of phosphorylated product formed in the presence of the compound compared with phosphorylated product formed in reactions containing 1% DMSO. Inhibition data indicates the mean value of kinase inhibition from duplicate data.

[4] = tested on: S6K, EIF3D, and EGFR in MDA-MB-468 cells; experiment: Immunoblot of S6K, EIF3D and EGFR protein levels; type: cell-based, human; settings: MDA-MB-468, 24 h
Protocol: Cells were lysed in radioimmunoprecipitation assay buffer containing 50 mM Tris-HCl (pH 7.6), 150 mM NaCl, 1% Triton X-100, and protease inhibitor cocktail tablets (Roche). After removal of the insoluble matter by centrifugation at 15,000 rpm for 15 min, the protein concentrations of the supernatants were determined using a BCA Protein Assay Kit (Pierce Biotechnology, Rockford, IL). The lysates were directly combined with one-quarter volume of 5× sample buffer [25 mmol/L Tris-HCl pH 6.8, 10% glycerol, 0.8% SDS, and 0.004% bromophenol blue] and boiled at 100°C for 5 min. The samples were subjected to 5–20% gradient SDS-polyacrylamide gel electrophoresis, and the separated proteins were electrophoretically transferred to polyvinylidene difluoride membranes using an I-blot System (Invitrogen). The membranes were incubated with primary antibodies and visualized using enhanced chemiluminescence reagents (GE Healthcare). The primary antibodies were as follows: anti-phospho-SR (1H4), anti-SR (Invitrogen), anti-EGFR, anti-EIF3D, anti-GAPDH (Santa Cruz Biotechnology, Santa Cruz, CA), anti-S6K and anti-PARP (Cell Signaling Technology, Danvers, MA).

T1 sequence (Q9UPE1 whole entry): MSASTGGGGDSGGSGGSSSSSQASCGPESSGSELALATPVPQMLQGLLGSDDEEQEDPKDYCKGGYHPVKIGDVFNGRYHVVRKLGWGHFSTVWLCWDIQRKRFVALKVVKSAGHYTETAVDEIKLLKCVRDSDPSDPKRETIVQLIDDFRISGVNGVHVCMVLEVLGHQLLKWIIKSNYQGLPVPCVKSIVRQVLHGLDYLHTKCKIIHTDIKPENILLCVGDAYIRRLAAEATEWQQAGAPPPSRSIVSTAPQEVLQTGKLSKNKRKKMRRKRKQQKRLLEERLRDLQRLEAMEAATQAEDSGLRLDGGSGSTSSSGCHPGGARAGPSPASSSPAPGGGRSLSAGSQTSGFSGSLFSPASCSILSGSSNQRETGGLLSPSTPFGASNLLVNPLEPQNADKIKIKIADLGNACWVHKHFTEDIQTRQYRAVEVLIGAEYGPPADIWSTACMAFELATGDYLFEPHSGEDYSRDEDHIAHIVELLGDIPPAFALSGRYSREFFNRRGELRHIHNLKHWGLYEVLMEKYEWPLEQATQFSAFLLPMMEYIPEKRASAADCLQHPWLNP
PI3Kα, sequence (P42336 whole entry): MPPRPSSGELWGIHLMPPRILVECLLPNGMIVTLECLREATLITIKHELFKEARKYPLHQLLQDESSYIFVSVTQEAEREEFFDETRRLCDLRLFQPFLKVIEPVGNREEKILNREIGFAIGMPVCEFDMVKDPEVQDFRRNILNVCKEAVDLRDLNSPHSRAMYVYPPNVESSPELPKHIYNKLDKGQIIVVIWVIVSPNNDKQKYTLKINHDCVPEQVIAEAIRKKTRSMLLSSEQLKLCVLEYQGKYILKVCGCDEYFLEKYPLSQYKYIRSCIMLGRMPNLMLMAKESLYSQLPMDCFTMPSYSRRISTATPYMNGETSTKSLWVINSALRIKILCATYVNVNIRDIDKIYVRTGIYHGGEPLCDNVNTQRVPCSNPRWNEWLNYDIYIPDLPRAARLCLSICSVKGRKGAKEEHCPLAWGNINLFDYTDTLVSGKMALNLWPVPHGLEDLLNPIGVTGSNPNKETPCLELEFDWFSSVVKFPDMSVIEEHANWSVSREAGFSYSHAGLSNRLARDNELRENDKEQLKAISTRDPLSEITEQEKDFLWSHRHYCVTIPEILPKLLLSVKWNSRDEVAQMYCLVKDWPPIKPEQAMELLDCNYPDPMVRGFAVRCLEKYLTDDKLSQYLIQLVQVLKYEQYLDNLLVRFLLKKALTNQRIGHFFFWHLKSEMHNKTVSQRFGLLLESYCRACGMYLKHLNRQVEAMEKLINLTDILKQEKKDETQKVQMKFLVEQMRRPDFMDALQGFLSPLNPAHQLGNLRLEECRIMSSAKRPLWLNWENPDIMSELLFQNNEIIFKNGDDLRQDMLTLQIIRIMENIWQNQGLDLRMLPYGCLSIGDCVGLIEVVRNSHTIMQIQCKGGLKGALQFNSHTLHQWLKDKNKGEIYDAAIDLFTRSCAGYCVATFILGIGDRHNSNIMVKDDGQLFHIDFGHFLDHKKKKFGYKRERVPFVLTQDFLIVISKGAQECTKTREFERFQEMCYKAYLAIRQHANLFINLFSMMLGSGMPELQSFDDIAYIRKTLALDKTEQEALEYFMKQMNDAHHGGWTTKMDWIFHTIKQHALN
PI3Kα, sequence (P27986 whole entry partner): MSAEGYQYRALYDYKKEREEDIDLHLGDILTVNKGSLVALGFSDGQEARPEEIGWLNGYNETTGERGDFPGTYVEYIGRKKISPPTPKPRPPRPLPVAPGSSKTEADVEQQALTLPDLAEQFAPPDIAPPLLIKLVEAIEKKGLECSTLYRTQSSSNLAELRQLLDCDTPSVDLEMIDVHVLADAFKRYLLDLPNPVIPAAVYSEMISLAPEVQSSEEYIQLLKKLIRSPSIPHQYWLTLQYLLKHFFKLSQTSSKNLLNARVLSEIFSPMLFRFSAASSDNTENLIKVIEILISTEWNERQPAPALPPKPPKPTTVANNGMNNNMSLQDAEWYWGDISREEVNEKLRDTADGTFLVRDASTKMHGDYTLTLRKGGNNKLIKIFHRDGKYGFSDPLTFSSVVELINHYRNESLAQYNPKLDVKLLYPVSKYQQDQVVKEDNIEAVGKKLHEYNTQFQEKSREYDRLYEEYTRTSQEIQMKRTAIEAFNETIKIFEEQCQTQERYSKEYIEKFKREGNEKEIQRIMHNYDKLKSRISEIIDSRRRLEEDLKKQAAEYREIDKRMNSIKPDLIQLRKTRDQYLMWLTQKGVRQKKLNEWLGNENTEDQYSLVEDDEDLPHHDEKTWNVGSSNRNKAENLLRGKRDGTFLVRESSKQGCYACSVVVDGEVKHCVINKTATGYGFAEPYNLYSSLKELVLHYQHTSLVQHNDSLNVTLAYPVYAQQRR

## CC(C)(CCc1nnn[nH]1)c1ccc(C(=O)Nc2cn3cc(C(F)(F)F)ccc3n2)cc1 [Cpd-1, 4-(2-methyl-4-(1H-tetrazol-5-yl)butan-2-yl)-N-(6-(trifluoromethyl)imidazo[1,2-a]pyridin-2-yl)benzamide]
[1]
  amounts of S6K mRNA isoforms harboring PTCs (exons 6–8, exons 6–10) versus canonical S6K exons 6–7 after 24 h chase: significantly lower

## CC(C)(C)c1ccc(C(=O)Nc2cn3cc(-c4cn[nH]c4)ccc3n2)cn1 [Cpd-2, 6-tert-butyl-N-(6-(1H-pyrazol-4-yl)imidazo[1,2-a]pyridin-2-yl)nicotinamide]
[2]
  IC50: 230 nM
[3]
  inhibition of PI3Kα in kinase panel: moderately inhibited
[4]
  protein levels of S6K, EIF3D, and EGFR: reduced the protein levels of S6K, EIF3D, and EGFR in a concentration-dependent manner
[1]
  amounts of S6K mRNA isoforms harboring PTCs (exons 6–8, exons 6–10) versus canonical S6K exons 6–7 after 24 h chase: significantly lower

## CC(C)(CO)c1ccc(C(=O)Nc2cn3cc(-c4cn[nH]c4)ccc3n2)cc1 [Cpd-3, 4-(1-hydroxy-2-methylpropan-2-yl)-N-(6-(1H-pyrazol-4-yl)imidazo[1,2-a]pyridin-2-yl)benzamide]
[2]
  IC50: 260 nM
